Reference: PMC10252614 (International Journal of Molecular Sciences, 2023)

Tests used:
hMAO-A = biological target: T1, hMAO-A (Homo sapiens, UniProt P21397); test: hMAO-A inhibition mechanism: dialysis reversibility and kinetics; assay type: biochemical; conditions: non-linear regression according to Michaelis–Menten
T1 construct: purchased Merck (Prague, Czech Republic)
T1 sequence (P21397 1-527): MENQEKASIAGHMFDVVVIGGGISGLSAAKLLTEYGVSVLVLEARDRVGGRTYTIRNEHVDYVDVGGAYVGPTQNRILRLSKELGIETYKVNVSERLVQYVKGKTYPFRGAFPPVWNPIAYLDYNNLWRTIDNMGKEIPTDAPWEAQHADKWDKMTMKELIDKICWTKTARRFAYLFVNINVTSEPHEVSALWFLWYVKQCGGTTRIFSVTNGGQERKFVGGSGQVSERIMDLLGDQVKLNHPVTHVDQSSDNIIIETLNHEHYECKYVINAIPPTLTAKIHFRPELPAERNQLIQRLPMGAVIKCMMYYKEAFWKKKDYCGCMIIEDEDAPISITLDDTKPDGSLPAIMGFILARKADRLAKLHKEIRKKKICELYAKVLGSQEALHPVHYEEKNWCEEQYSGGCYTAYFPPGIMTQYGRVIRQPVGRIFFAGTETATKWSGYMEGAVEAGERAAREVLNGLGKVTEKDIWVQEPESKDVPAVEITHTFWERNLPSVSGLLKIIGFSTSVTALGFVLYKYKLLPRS
Experimental: (§1) The MAOs were subsequently incubated with selected compounds at different concentrations and evaluated by non-linear regression according to Michaelis–Menten (Figure 5).
(§2) Inhibition mechanism was determined by non-linear regression and the double reciprocal method by Lineweaver–Burk using GraphPad Prism 8.2 software. […] The recovery of enzyme activity was determined using the above-mentioned protocol.

hMAO-B = biological target: T2, hMAO-B (Homo sapiens, UniProt P27338); test: hMAO-B inhibition mechanism: dialysis reversibility and kinetics; assay type: biochemical; conditions: for mode of hMAO-B inhibition: non-linear regression according to Michaelis–Menten
T2 construct: purchased Merck (Prague, Czech Republic)
T2 sequence (P27338 1-520): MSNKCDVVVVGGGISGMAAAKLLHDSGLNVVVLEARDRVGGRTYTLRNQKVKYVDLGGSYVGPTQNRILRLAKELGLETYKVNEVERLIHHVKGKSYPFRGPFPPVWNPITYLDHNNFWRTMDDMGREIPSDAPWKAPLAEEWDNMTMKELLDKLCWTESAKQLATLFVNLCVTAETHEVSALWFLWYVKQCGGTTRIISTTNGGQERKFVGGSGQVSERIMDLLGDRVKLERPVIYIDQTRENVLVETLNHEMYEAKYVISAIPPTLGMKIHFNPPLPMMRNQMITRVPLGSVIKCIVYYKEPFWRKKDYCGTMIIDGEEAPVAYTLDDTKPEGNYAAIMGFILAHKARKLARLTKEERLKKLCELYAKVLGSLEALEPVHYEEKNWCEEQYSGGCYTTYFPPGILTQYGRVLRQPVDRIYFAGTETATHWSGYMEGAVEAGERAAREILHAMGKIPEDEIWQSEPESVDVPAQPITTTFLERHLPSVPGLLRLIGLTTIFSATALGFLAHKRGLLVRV
Experimental: as §1, §2

SH-SY5Y cells [1] = test: nuclear condensation and fragmentation, Hoechst 33258 assay; assay type: cell-based, human; conditions: 100 µM, 24 h
Experimental: (§3) Thus, SH-SY5Y cells were incubated with II-6h and III-6a (10 and 100 µM) for 24 h. After the treatment, dehydrogenase activity, glutathione levels, nuclear condensation and fragmentation, and ATP levels were measured (Figure 7). […] The decrease in dehydrogenase activity was found in cells treated with 100 µM II-6h (p < 0.001).
To measure nuclear condensation and fragmentation in intact cells, we used fluorescence dye Hoechst 33258 (H33258, 1 mg/mL; Merck, USA). After cell treatment with II-6h (10–100 µM) and III-6a (10–100 µM), the cells grown in a 96-well plate were centrifuged (5 min; 8000g; RT). Then, 70 µL of a supernatant was replaced with 70 µL of PBS 1× and 10 µL of H33258 solution was added to a well. The final concentrations of H33258 in a well was 2 µg/mL. Then, the cells were incubated with H33258 for 5 min and spectrofluorometric measurement was performed at Ex/Em = 352/461 nm using SPARK microplate reader (Tecan, Austria) while incubated at 37 °C. The samples were measured at least in triplicates. After background subtraction, the fluorescence signal was presented in RFU as mean ± SEM.

SH-SY5Y cells [2] = test: intracellular ATP, luciferase luminescence assay; assay type: cell-based, human; conditions: 100 µM, 24 h
Experimental: as §3
The quantification of intracellular ATP was performed using luciferase luminescence assay. After cell treatment with II-6h and III-6a (10–100 µM), the culture medium was replaced with 100 µL of cold water for cell lysis, incubated for 5 min and centrifuged (4800× g; 5 min; 4 °C). To detect intracellular ATP concentration, 90 µL of the reaction solution was added to 10 µL of a lysate. The reaction solution included 20× reaction buffer (500 mM Tricine buffer, pH 7.8; 10 mM MgSO4, 2 mM Na2EDTA), 5 mg/mL luciferase; 10 mM D-luciferin; 0.1 M DTT and dH2O. Luminometric measurement was performed at Em = 550 nm using SPARK microplate reader (Tecan, Grödig, Austria). The intracellular ATP levels were expressed as the percentage of total ATP level relative to that in the control cells (control = 100%) as mean ± SEM.

C#CCN(C)c1nc(NC2CCCCC2)c2ccccc2n1 [I-6h, N4-cyclohexyl-N2-methyl-N2-(prop-2-yn-1-yl)quinazoline-2,4-diamine]
mode of hMAO-A inhibition (hMAO-A): mixed mode inhibition
mode of hMAO-B inhibition (hMAO-B): mixed mode inhibition

C#CCN(C)c1nc(NC2CCCCC2)c2ccc(Cl)cc2n1 [II-6h, 7-chloro-N4-cyclohexyl-N2-methyl-N2-(prop-2-yn-1-yl)quinazoline-2,4-diamine]
mode of hMAO-B inhibition (hMAO-B): mixed mode inhibition
reversible/irreversible inhibitory action towards hMAO-B (hMAO-B; recovery of enzyme activity after dialysis): only a partial recovery
nuclear condensation and fragmentation (in words) (SH-SY5Y cells [1]): significant increase
intracellular ATP levels (in words) (SH-SY5Y cells [2]): partial exhaustion of ATP

C#CCN(C)c1nc(N)c2cc(OC)ccc2n1 [III-6a, 6-methoxy-N2-methyl-N2-(prop-2-yn-1-yl)quinazoline-2,4-diamine]
mode of hMAO-A inhibition (hMAO-A): mixed mode inhibition
nuclear condensation and fragmentation (in words) (SH-SY5Y cells [1]): significant increase
